This note sets out measurements from patent publication US20220378923A1, “BET DEGRADER” (KYOWA KIRIN CO., LTD., priority 2019, published 2022).

The assay has as its system MYC mRNA expression in SU-DHL-4 cells. The assay can be described thus: Suppressive effect on MYC mRNA expression (Test Example 2). In kind it is cell-based, human. The following applies: test compound 100 nmol/L, 6 hours, qRT-PCR corrected by ACTB, GAPDH; for Suppression Rate of MYC mRNA Expression (%): HPRT1; for inhibition at 0.1 µM: Homo sapiens, HPRT1, read-out: Suppression Rate of MYC mRNA Expression (%). In short, it runs like this:
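SU-DHL-4 cells were treated for 6 h at 37 °C with compound (0.1% DMSO final). MYC mRNA was measured by TaqMan qRT-PCR and normalised to the geometric mean of ACTB, GAPDH and HPRT1. Suppression was calculated relative to untreated wells.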
(Quantitative PCR measures a nucleic acid by following its amplification.)

With `CCC(=O)N1c2ccccc2[C@H](N[C@H]2CC[C@H](NC(=O)C#CCNC(=O)[C@H]3CC[C@H](N[C@@H]4C[C@H](C)N(C(=O)CC)c5ccccc54)CC3)CC2)C[C@@H]1C` (relative stereo) [Compound 9d, (1R,4R)-4-(((2S*,4R*)-2-Methyl-1-propionyl-1,2,3,4-tetrahydroquinolin-4-yl)amino)-N-(4-(((1R,4R)-4-(((2S,4R)-2-methyl-1-propionyl-1,2,3,4-tetrahydroquinolin-4-yl)amino)cyclohexyl)amino)-4-oxobut-2-yn-1-yl)cyclohexane-1-carboxamide], the “Suppression Rate of MYC mRNA Expression (%)” value (shortened to “Suppression Rate … (%)”) stood at 98.0%. Consider `CCC(=O)N1c2ccccc2[C@H](NCC23CCC(C(=O)N4CC(C(=O)Nc5ccc(N[C@@H]6C[C@H](C)N(C(=O)CC)c7ccccc76)cc5)C4)(CC2)CC3)C[C@@H]1C` (relative stereo) [Compound 17o, 1-(4-((((2S,4R)-2-Methyl-1-propionyl-1,2,3,4-tetrahydroquinolin-4-yl)amino)methyl)bicyclo[2.2.2]octane-1-carbonyl)-N-(4-(((2S*,4R*)-2-methyl-1-propionyl-1,2,3,4-tetrahydroquinolin-4-yl)amino)phenyl)azetidine-3-carboxamide], for which the inhibition at 0.1 µM is 97.1%.

For the molecule `CCC(=O)N1c2ccccc2[C@H](Nc2ccc(CCCC(=O)Nc3ccc(N[C@@H]4C[C@H](C)N(C(=O)CC)c5ccccc54)cc3)cc2)C[C@@H]1C` [Compound 5r, N,4-Bis(4-(((2S,4R)-2-methyl-1-propionyl-1,2,3,4-tetrahydroquinolin-4-yl)amino)phenyl)butanamide], the inhibition at 0.1 µM was found to be 96.7%. Still for that read-out and setting: then `CCC(=O)N1c2ccccc2[C@H](Nc2ccc(-n3cc(CNC(=O)N4CCC(N[C@@H]5C[C@H](C)N(C(=O)CC)c6ccccc65)CC4)nn3)cc2)C[C@@H]1C` (relative stereo) [Compound 10b, 4-(((2S*,4R*)-2-Methyl-1-propionyl-1,2,3,4-tetrahydroquinolin-4-yl)amino)-N-((1-(4-(((2S,4R)-2-methyl-1-propionyl-1,2,3,4-tetrahydroquinolin-4-yl)amino)phenyl)-1H-1,2,3-triazol-4-yl)methyl)piperidine-1-carboxamide], with 96.6%; and `CCC(=O)N1c2ccccc2[C@H](Nc2ccc(NC(=O)CNCC(=O)Nc3ccc(N[C@@H]4C[C@H](C)N(C(=O)CC)c5ccccc54)cc3)cc2)C[C@@H]1C` [Compound 5d, 2,2′-Azanediylbis(N-(4-(((2S,4R)-2-methyl-1-propionyl-1,2,3,4-tetrahydroquinolin-4-yl)amino)phenyl)acetamide)], with 97.5%. Consider `CCC(=O)N1c2ccccc2C(Nc2ccc(NC(=O)C#CCNC(=O)c3ccc(N[C@@H]4C[C@H](C)N(C(=O)CC)c5ccccc54)cc3)cc2)CC1C` (stereo partly drawn) [Compound 6h, 4-(((2S,4R)-2-Methyl-1-propionyl-1,2,3,4-tetrahydroquinolin-4-yl)amino)-N-(4-((4-((2-methyl-1-propionyl-1,2,3,4-tetrahydroquinolin-4-yl)amino)phenyl)amino)-4-oxobut-2-yn-1-yl)benzamide], for which the inhibition at 0.1 µM came out at 97.2%. On the same count and under the same terms, then `CCC(=O)N1c2ccccc2[C@H](Nc2ccc(NC(=O)CCSc3ccc(N[C@@H]4C[C@H](C)N(C(=O)CC)c5ccccc54)cc3)cc2)C[C@@H]1C` (relative stereo) [Compound 4e, N-(4-{[(2S*,4R*)-2-Methyl-1-propionyl-1,2,3,4-tetrahydroquinolin-4-yl]amino}phenyl)-3-[(4-{[(2S,4R)-2-methyl-1-propionyl-1,2,3,4-tetrahydroquinolin-4-yl]amino}phenyl)thio]propanamide], with 98.4%. As to `Cc1sc2c(c1C)C(c1ccc(C(=O)NCCCNC(=O)c3ccc(C4=N[C@@H](CC(=O)OC(C)(C)C)c5nnc(C)n5-c5sc(C)c(C)c54)cc3)cc1)=N[C@@H](CC(=O)OC(C)(C)C)c1nnc(C)n1-2` [Compound 1b, Di-tert-butyl 2,2′-[(6S,6′S)-({[propane-1,3-diylbis(azanediyl)]bis(carbonyl)}bis(4,1-phenylene))bis(2,3,9-trimethyl-6H-thieno[3,2-f][1,2,4]triazolo[4,3-a][1,4]diazepine-4,6-diyl)]diacetate], the inhibition at 0.1 µM was 98.4%. The same measure, in the same setting: for `CCC(=O)N1c2ccccc2[C@H](Nc2ccc(NC(=O)CCCC(=O)Nc3cccc(Oc4ccccc4-c4cn(C)c(=O)cc4OC)c3)cc2)C[C@@H]1C` [Compound 16m, N^1-(3-(2-(4-Methoxy-1-methyl-6-oxo-1,6-dihydropyridin-3-yl)phenoxy)phenyl)-N5-(4-(((2S,4R)-2-methyl-1-propionyl-1,2,3,4-tetrahydroquinolin-4-yl)amino)phenyl)glutaramide] the value was 97.1%. In the case of `CCC(=O)N1c2ccccc2[C@H](Nc2ccc(NC(=O)CCCC(=O)Nc3cccc(Oc4ccc(NS(=O)(=O)CC)cc4-c4cn(C)c(=O)cc4OC)c3)cc2)C[C@@H]1C` [Compound 16j, N^1-(3-(4-(Ethylsulfonamide)-2-(4-methoxy-1-methyl-6-oxo-1,6-dihydropyridin-3-yl)phenoxy)phenyl)-N5-(4-(((2S,4R)-2-methyl-1-propionyl-1,2,3,4-tetrahydroquinolin-4-yl)amino)phenyl)glutaramide], the “Suppression Rate … (%)” value amounted to 92.4%. With `CCC(=O)N1c2ccccc2[C@H](Nc2ccc(C(=O)NCCCNC(=O)c3ccc(C4=N[C@@H](CC(=O)OCCCOC)c5nnc(C)n5-c5sc(C)c(C)c54)cc3)cc2)C[C@@H]1C` [Compound 13h, 3-Methoxypropyl 2-((S)-2,3,9-trimethyl-4-(4-((3-(4-(((2S,4R)-2-methyl-1-propionyl-1,2,3,4-tetrahydroquinolin-4-yl)amino)benzamide)propyl)carbamoyl)phenyl)-6H-thieno[3,2-f][1,2,4]triazolo[4,3-a][1,4]diazepin-6-yl)acetate], the “Suppression Rate … (%)” value came to 97.4%. Still for that read-out and setting: for `CCC(=O)N1c2ccccc2[C@H](Nc2ccc(C(=O)N3CC(C(=O)N[C@H]4CC[C@H](N[C@@H]5C[C@H](C)N(C(=O)CC)c6ccccc65)CC4)C3)cc2)C[C@@H]1C` [Compound 8r, 1-(4-(((2S,4R)-2-Methyl-1-propionyl-1,2,3,4-tetrahydroquinolin-4-yl)amino)benzoyl)-N-((1R,4R)-4-(((2S,4R)-2-methyl-1-propionyl-1,2,3,4-tetrahydroquinolin-4-yl)amino)cyclohexyl)azetidine-3-carboxamide] the value was 96.7%. For `CCC(=O)N1c2ccccc2[C@H](Nc2ccc(NC(=O)CCCC(=O)Nc3ccc(N[C@@H]4C[C@H](C)N(C(=O)CC)c5ccccc54)nc3)cc2)C[C@@H]1C` [Compound 10k, N^1-(4-(((2S,4R)-2-Methyl-1-propionyl-1,2,3,4-tetrahydroquinolin-4-yl)amino)phenyl)-N^5-(6-(((2S,4R)-2-methyl-1-propionyl-1,2,3,4-tetrahydroquinolin-4-yl)amino)pyridin-3-yl)glutaramide], the inhibition at 0.1 µM amounted to 97%. On to `CCC(=O)N1c2ccccc2[C@H](Nc2ccc(Cc3cnc4n3CCN(C(=O)c3ccc(N[C@@H]5C[C@H](C)N(C(=O)CC)c6ccccc65)cc3)C4)cc2)C[C@@H]1C` [Compound 5q, 1-((2S,4R)-2-Methyl-4-((4-((7-(4-(((2S,4R)-2-methyl-1-propionyl-1,2,3,4-tetrahydroquinolin-4-yl)amino)benzoyl)-5,6,7,8-tetrahydroimidazo[1,2-a]pyrazin-3-yl)methyl)phenyl)amino)-3,4-dihydroquinolin-1(2H)-yl)propan-1-one], for which the inhibition at 0.1 µM is 97.2%. As to `CCC(=O)N1c2ccccc2[C@H](Nc2ccc(NC(=O)COCC(=O)Nc3ccc(C4=NCc5nnc(C)n5-c5sc(C)c(C)c54)cc3)cc2)C[C@@H]1C` [Compound 14d, N-(4-(((2S,4R)-2-Methyl-1-propionyl-1,2,3,4-tetrahydroquinolin-4-yl)amino)phenyl)-2-(2-oxo-2-((4-(2,3,9-trimethyl-6H-thieno[3,2-f][1,2,4]triazolo[4,3-a][1,4]diazepin-4-yl)phenyl)amino)ethoxy)acetamide], the inhibition at 0.1 µM was found to be 97.4%. With `CCC(=O)N1c2ccccc2[C@H](Nc2ccc(Cn3cc(C(=O)Nc4ccc(N[C@@H]5C[C@H](C)N(C(=O)CC)c6ccccc65)cc4)nn3)cc2)C[C@@H]1C` [Compound 5j, 1-(4-(((2S,4R)-2-Methyl-1-propionyl-1,2,3,4-tetrahydroquinolin-4-yl)amino)benzyl)-N-(4-(((2S,4R)-2-methyl-1-propionyl-1,2,3,4-tetrahydroquinolin-4-yl)amino)phenyl)-1H-1,2,3-triazolee-4-carboxamide], the “Suppression Rate … (%)” value is listed as 96.8%. Regarding `CCC(=O)N1c2ccccc2[C@H](NCCCCC(=O)NCc2cn(-c3ccc(N[C@@H]4C[C@H](C)N(C(=O)CC)c5ccccc54)cc3)nn2)C[C@@H]1C` (relative stereo) [Compound 12f, 5-(((2S*,4R*)-2-Methyl-1-propionyl-1,2,3,4-tetrahydroquinolin-4-yl)amino)-N-((1-(4-(((2S,4R)-2-methyl-1-propionyl-1,2,3,4-tetrahydroquinolin-4-yl)amino)phenyl)-1H-1,2,3-triazol-4-yl)methyl)pentane amide], the “Suppression Rate … (%)” value is reported as 97.9%. With `CCC(=O)N1c2ccccc2[C@H](Nc2ccc(-c3cnn(CCNC(=O)c4ccc(Cn5c(C(=O)OCCN(C)C)cc6c5CCCC6=O)cc4)c3)cc2)C[C@@H]1C` [Compound 15d, 2-(Dimethylamino)ethyl 1-(4-((2-(4-(4-(((2S,4R)-2-methyl-1-propionyl-1,2,3,4-tetrahydroquinolin-4-yl)amino)phenyl)-1H-pyrazol-1-yl)ethyl)carbamoyl)benzyl)-4-oxo-4,5,6,7-tetrahydro-1H-indole-2-carboxylate], the inhibition at 0.1 µM is 96.9%.
